Results taken from the supplement of paper PMC10307832.

Tests used:
Experiment in all cases: relative viability (nuclei count vs DMSO), 5 days (fraction); higher = more cells survive
Bexarotene + Decitabine = compound: C=C(c1ccc(C(=O)O)cc1)c1cc2c(cc1C)C(C)(C)CCC2(C)C [Bexarotene] + Nc1ncn([C@H]2C[C@H](O)[C@@H](CO)O2)c(=O)n1 [Decitabine] (partner 2 µM)
Method in brief: (§1)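 Five library-drug doses in √10 steps were combined with a fixed anchor-drug dose, or a single drug was given alone, by pin tool to lung cancer cell lines in 1536-well plates the day after seeding. Nuclei were stained and counted after 5 days. Relative viability is the nuclei count in treated wells over that in vehicle wells, taken as the median of duplicate plates.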

Bexarotene + Crizotinib = compound: C=C(c1ccc(C(=O)O)cc1)c1cc2c(cc1C)C(C)(C)CCC2(C)C [Bexarotene] + C[C@@H](Oc1cc(-c2cnn(C3CCNCC3)c2)cnc1N)c1c(Cl)ccc(F)c1Cl [Crizotinib] (partner 1 µM)
Method in brief: as §1

Bexarotene + Phenformin = compound: C=C(c1ccc(C(=O)O)cc1)c1cc2c(cc1C)C(C)(C)CCC2(C)C [Bexarotene] + N=C(N)NC(=N)NCCc1ccccc1 [Phenformin] (partner 250 µM)
Method in brief: as §1

Bexarotene + Navitoclax = compound: C=C(c1ccc(C(=O)O)cc1)c1cc2c(cc1C)C(C)(C)CCC2(C)C [Bexarotene] + CC1(C)CCC(c2ccc(Cl)cc2)=C(CN2CCN(c3ccc(C(=O)NS(=O)(=O)c4ccc(N[C@H](CCN5CCOCC5)CSc5ccccc5)c(S(=O)(=O)C(F)(F)F)c4)cc3)CC2)C1 [Navitoclax] (partner 0.5 µM)
Method in brief: as §1

Cell Line	relative viability (Bexarotene + Decitabine; first compound 0.08 µM)	relative viability (Bexarotene + Decitabine; first compound 0.253 µM)	relative viability (Bexarotene + Decitabine; first compound 0.8 µM)	relative viability (Bexarotene + Decitabine; first compound 2.53 µM)	relative viability (Bexarotene + Decitabine; first compound 8 µM)	relative viability (Bexarotene + Crizotinib; first compound 0.08 µM)	relative viability (Bexarotene + Crizotinib; first compound 0.253 µM)	relative viability (Bexarotene + Crizotinib; first compound 0.8 µM)	relative viability (Bexarotene + Crizotinib; first compound 2.53 µM)	relative viability (Bexarotene + Crizotinib; first compound 8 µM)	relative viability (Bexarotene + Phenformin; first compound 0.08 µM)	relative viability (Bexarotene + Phenformin; first compound 0.253 µM)	relative viability (Bexarotene + Phenformin; first compound 0.8 µM)	relative viability (Bexarotene + Phenformin; first compound 2.53 µM)	relative viability (Bexarotene + Phenformin; first compound 8 µM)	relative viability (Bexarotene + Navitoclax; first compound 0.08 µM)	relative viability (Bexarotene + Navitoclax; first compound 0.253 µM)	relative viability (Bexarotene + Navitoclax; first compound 0.8 µM)	relative viability (Bexarotene + Navitoclax; first compound 2.53 µM)	relative viability (Bexarotene + Navitoclax; first compound 8 µM)
HCC-366	0.36	0.376	0.339	0.346	0.289	0.526	0.62	0.35	0.574	0.586	0.624	0.608	0.579	0.533	0.597	1.04	1.15	1.14	0.975	1.03
HCC-827	0.396	0.311	0.33	0.298	0.335	0.894	0.939	0.902	0.94	0.915	0.51	0.444	0.493	0.463	0.444	1.06	1.05	0.97	0.975	0.868
HOP-62	0.222	0.183	0.183	0.164	0.208	1.18	0.915	0.953	1.09	0.944	0.738	0.701	0.698	0.651	0.571	1.02	1.07	1.26	1.01	1.17
LC-2-ad	0.805	0.85	0.853	0.772	0.813	0.443	0.46	0.44	0.504	0.412	0.607	0.578	0.611	0.521	0.546	0.576	0.485	0.432	0.368	0.284
LCLC-97TM1	0.282	0.224	0.227	0.189	0.21	0.478	0.343	0.576	0.409	0.472	0.473	0.438	0.406	0.454	0.451	0.459	0.4	0.413	0.427	0.381
LK-2	0.387	0.308	0.321	0.35	0.279	0.309	0.213	0.206	0.221	0.247	1.15	0.506	0.381		0.47	1.1	0.782	0.935	0.944	0.802
LOU-NH91	0.854	0.841	0.833	0.773	0.717	0.767	0.73	0.696	0.686	0.639	0.687	0.673	0.595	0.6	0.49	0.608	0.637	0.502	0.597	0.512
LU99A	1.18	1	0.935	0.909	0.889	0.495	0.634	0.573	0.524	0.542	1.24	0.89	0.862	0.829	0.912	0.931	0.828	0.826	0.895	0.89
LXF-289	0.381	0.3	0.293	0.313	0.323	0.901	0.994	1	0.979	0.973	0.591	0.544	0.523	0.516	0.508	1.11	1.09	1.08	1.1	0.974
NCI-H23	0.351	0.322	0.346	0.298	0.329	0.534	0.561	0.514	0.647	0.529	0.854	0.759	0.694	0.763	0.712	1.01	0.96	0.853	0.923	0.729
NCI-H322M	0.68	0.748	0.655	0.678	0.731	0.829	1.06	0.87	0.93	1.04	0.969	0.825	0.814	0.775	0.789	1.19	1.33	1.17	1.19	1.26
NCI-H441	0.3	0.283	0.236	0.229	0.279	0.742	0.708	0.94	0.635	0.738	1.03	0.743	0.811	0.864	0.868	0.845	0.747	1.02		0.541
NCI-H460	0.581	0.505	0.448	0.499	0.381	0.91	1.1	0.908	0.845	0.766	0.552	0.543	0.494	0.455	0.427	1.31	1.18	1.05	0.993	0.918
NCI-H520	0.499	0.473	0.552	0.52	0.51	0.989	0.735	0.649	0.775	0.659	0.643	0.485	0.514	0.445	0.417	1.14	1.11	1.03	1.14	0.993
NCI-H596	1.11	0.966	0.974	1.09	1.02	1.05	1.01	0.871	0.973	1.05	0.811	0.743	0.747	0.828	0.776	1.02	0.85	0.707	0.973	0.829
NCI-H647	0.439	0.394	0.412	0.419	0.335	1.38	1.18	1.19	1.12	0.912	0.588	0.472	0.519	0.53	0.43	1.32	1.35	1.2	1.15	1.1
